Measured values as given in publication PMC8286840, “Identifying SARS-CoV-2 antiviral compounds by screening for small molecule inhibitors of Nsp3 papain-like protease” (Biochemical Journal, 2021).
Structures can show the parent of a compound that is named as a salt. Where two headings read alike, the source gives them in different places.

Tests used:
[1] = target: T1, SARS-CoV-2 PLpro (nsp3 1564–1878) (Severe acute respiratory syndrome coronavirus 2, UniProt P0DTD1); assay: biochemical; parameters: FRET-quenched peptide (Pro3) cleavage by PLpro, 10 min pre-incubation, slope over 20 min, normalised to no-compound control; conditions: low concentration screen, read-out: % of control remaining
[2] = target: T1, SARS-CoV-2 PLpro (nsp3 1564–1878); assay: biochemical; parameters: FRET-quenched peptide (Pro3) cleavage by PLpro, 10 min pre-incubation, slope over 20 min, normalised to no-compound control; conditions: high concentration screen, read-out: % of control remaining

## O=C[C@H](Cl)[C@@H](O)[C@H](O)[C@H](O)CO [2-Chloro-2-deoxy-D-glucose]
[1]; Well no.=441
  remaining activity at 1.25 µM: 103%
[2]; Well no.=441
  remaining activity at 3.75 µM: 104%

## OC[C@H]1O[C@@H](n2cnc3c(NC4CCCC4)nc(Cl)nc32)[C@H](O)[C@@H]1O [2-Chloro-N6-cyclopentyladenosine]
[1]; Well no.=439
  remaining activity at 1.25 µM: 98.2%
[2]; Well no.=439
  remaining activity at 3.75 µM: 102%

## Nc1nc(Cl)nc2c1ncn2[C@@H]1O[C@H](COP(=O)(O)OP(=O)(O)OP(=O)(O)O)[C@H](O)C1O (stereo partly shown) [2-Chloroadenosine triphosphate tetrasodium]
[1]; Well no.=535
  remaining activity at 1.25 µM: 100%
[2]; Well no.=535
  remaining activity at 3.75 µM: 102%

## Nc1nc(Cl)nc2c1ncn2[C@@H]1O[C@H](CO)[C@@H](O)[C@H]1O [2-Chloroadenosine]
[1]; Well no.=274
  remaining activity at 1.25 µM: 99.4%
[2]; Well no.=274
  remaining activity at 3.75 µM: 101%

## CNC(=O)[C@H]1O[C@@H](n2cnc3c(NCc4cccc(I)c4)nc(Cl)nc32)[C@H](O)[C@@H]1O [2-Cl-IB-MECA]
[1]; Well no.=6316
  remaining activity at 1.25 µM: 95%
[2]; Well no.=6316
  remaining activity at 3.75 µM: 90.2%

## NCC(O)C1CCCCCCC1 (stereo not shown) [2-Cyclooctyl-2-hydroxyethylamine hydrochloride]
[1]; Well no.=485
  remaining activity at 1.25 µM: 106%
[2]; Well no.=485
  remaining activity at 3.75 µM: 105%

## O=CC[C@@H](O)[C@H](O)[C@H](O)CO [2-Deoxy-D-glucose]
[1]; Well no.=8302
  remaining activity at 1.25 µM: 100%
[2]; Well no.=8302
  remaining activity at 3.75 µM: 101%

## CCCCCCCCCCCCCCC(F)C(=O)O (stereo not shown) [2-Fluoropalmitic acid]
[1]; Well no.=4355
  remaining activity at 1.25 µM: 99.2%
[2]; Well no.=4355
  remaining activity at 3.75 µM: 97%

## NC(N)=NCC(=O)O [2-Guanidinoacetic acid]
[1]; Well no.=6437
  remaining activity at 1.25 µM: 103%
[2]; Well no.=6437
  remaining activity at 3.75 µM: 105%

## CCC(C)(O)C(=O)O (stereo not shown) [2-Hydroxy-2-methylbutanoic acid]
[1]; Well no.=6357
  remaining activity at 1.25 µM: 96.5%
[2]; Well no.=6357
  remaining activity at 3.75 µM: 93.4%

## CC(C)C(O)C(=O)O (stereo not shown) [2-Hydroxy-3-methylbutanoic acid]
[1]; Well no.=7503
  remaining activity at 1.25 µM: 101%
[2]; Well no.=7503
  remaining activity at 3.75 µM: 98.9%

## CCCCCCCCCCCCC(O)C(=O)O (stereo not shown) [2-Hydroxymyristic acid]
[1]; Well no.=4353
  remaining activity at 1.25 µM: 103%
[2]; Well no.=4353
  remaining activity at 3.75 µM: 102%

## O=C(O)Cc1ccccc1O [2-Hydroxyphenylacetic acid]
[1]; Well no.=6307
  remaining activity at 1.25 µM: 104%
[2]; Well no.=6307
  remaining activity at 3.75 µM: 107%

## NCC(O)(CS(=O)(=O)O)c1ccc(Cl)cc1 (stereo not shown) [2-Hydroxysaclofen]
[1]; Well no.=355
  remaining activity at 1.25 µM: 97.9%
[2]; Well no.=355
  remaining activity at 3.75 µM: 95.6%

## COc1ccc2[nH]c(I)c(CCNC(C)=O)c2c1 [2-Iodomelatonin]
[1]; Well no.=622
  remaining activity at 1.25 µM: 99.9%
[2]; Well no.=622
  remaining activity at 3.75 µM: 99.7%

## O=C(O)CCC(=O)C(=O)O [2-Ketoglutaric acid]
[1]; Well no.=7061
  remaining activity at 1.25 µM: 103%
[2]; Well no.=7061
  remaining activity at 3.75 µM: 98.4%

## COc1ccccc1C(=O)O [2-Methoxybenzoic acid]
[1]; Well no.=6583
  remaining activity at 1.25 µM: 103%
[2]; Well no.=6583
  remaining activity at 3.75 µM: 101%

## COc1cc2c(cc1O)CC[C@@H]1[C@@H]2CC[C@]2(C)[C@@H](O)CC[C@@H]12 [2-Methoxyestradiol]
[1]; Well no.=836
  remaining activity at 1.25 µM: 105%
[1]; Well no.=6292
  remaining activity at 1.25 µM: 95.9%
[2]; Well no.=836
  remaining activity at 3.75 µM: 102%
[2]; Well no.=6292
  remaining activity at 3.75 µM: 93.3%

## Cc1[nH]c2ccc(O)cc2c1CCN [2-Methyl-5-hydroxytryptamine maleate]
[1]; Well no.=847
  remaining activity at 1.25 µM: 102%
[2]; Well no.=847
  remaining activity at 3.75 µM: 102%

## CC(CCC(=O)O)C(=O)O (stereo not shown) [2-Methylpentanedioic acid]
[1]; Well no.=6733
  remaining activity at 1.25 µM: 99.7%
[2]; Well no.=6733
  remaining activity at 3.75 µM: 105%

## CC(CC(=O)O)C(=O)O (stereo not shown) [2-Methylsuccinic acid]
[1]; Well no.=6635
  remaining activity at 1.25 µM: 100%
[2]; Well no.=6635
  remaining activity at 3.75 µM: 98.3%

## Oc1ccc2ccccc2c1 [2-Naphthol]
[1]; Well no.=7155
  remaining activity at 1.25 µM: 103%
[2]; Well no.=7155
  remaining activity at 3.75 µM: 99.5%

## O=C(O)C(=O)Cc1ccccc1 [2-Oxo-3-phenylpropanoic acid]
[1]; Well no.=6877
  remaining activity at 1.25 µM: 109%
[2]; Well no.=6877
  remaining activity at 3.75 µM: 103%

## CCC(=O)C(=O)O [2-Oxobutanoic acid]
[1]; Well no.=6293
  remaining activity at 1.25 µM: 106%
[2]; Well no.=6293
  remaining activity at 3.75 µM: 105%

## Nc1nc(Nc2ccccc2)nc2c1ncn2[C@@H]1O[C@H](CO)[C@@H](O)[C@H]1O [2-Phenylaminoadenosine]
[1]; Well no.=1213
  remaining activity at 1.25 µM: 102%
[2]; Well no.=1213
  remaining activity at 3.75 µM: 106%
